{
  "source": "paper PMC8421406",
  "about": "“C9orf72-derived arginine-rich poly-dipeptides impede phase modifiers” (Nature Communications, 2021)",
  "key": {"Kapβ2 [1]": {"system": "Kapβ2", "test": "Pull-down (on-column) binding assay, Kapβ2", "settings": "purified recombinant proteins, 20 mM HEPES pH 7.4, 150 mM NaCl, equal molar, 20–30 min", "source_text": "(§1) Unbound proteins were washed three times with the buffer."}, "endogenous Kapβ2": {"system": "endogenous Kapβ2", "test": "Immunoprecipitation from HeLa cells", "format": "binding", "settings": "expressed in HeLa cells; cytosol extract, Streptavidin Mag Sepharose", "experimental": "The pcDNA5/FRT/TO-HA:SBP plasmid was generated by inserting the PCR-amplified HA:SBP sequence into the pcDNA5/FRT/TO vector (Thermo Fisher Scientific) between the HindIII and BamHI sites. The HA:SBP:GFP:PR20:HA plasmid was constructed by ligating the GFP:PR20:HA sequence into the pcDNA5/FRT/TO-HA-SBP between the EcoRV and XhoI sites. The HA:SBP:Kapβ2 plasmid was constructed by ligating the Kapβ2 sequence into the pcDNA5/FRT/TO-HA:SBP between the BamHI and NotI sites. HeLa cells were cultured in Dulbecco’s modified Eagle medium/10% fetal bovine serum at 37 °C with 5% CO2. Cells were transfected with plasmids using Lipofectamine 3000 (Thermo Fisher Scientific) according to the manufacturer’s instructions. HeLa cytosol extracts were prepared by Cytoplasmic Extraction buffer (CE; 10 mM HEPES pH 7.9, 60 mM KCl, 1 mM EDTA, 0.075% NP40, 1 mM DTT, and cOmplete™ EDTA-free protease inhibitor [Sigma-Aldrich]) for 10 min on ice and then separated from nuclear by centrifugation at 500 × g for 10 min. The resultant extracts were cleared by centrifugation at 20,400 × g for 10 min. The supernatant containing the HeLa cytosol extracts were mixed with the Streptavidin Mag Sepharose (GE Healthcare) and rotated at 4 °C overnight. The beads were finally washed five times with CE buffer. The anti-Kapβ2 (sc-166127, 1 : 1000) antibody was obtained from Santa Cruz Biotechnology. […]"}, "[2]": {"system": "MBP:FUS (full-length FUS droplets) / Kapβ2", "test": "Turbidity assay of FUS droplet formation (OD 395 nm)", "format": "biochemical", "settings": "equimolar poly-dipeptide and Kapβ2 (8 μM)"}, "Importinα": {"system": "Importinα", "test": "Pull-down binding assay, GST:Importinα", "settings": "GST:Importinα on beads", "source_text": "as §1"}, "Importinβ1": {"system": "Importinβ1", "test": "Pull-down binding assay, GST:Importinβ1", "settings": "GST:Importinβ1 on beads", "source_text": "as §1"}, "Kapβ2 [3]": {"system": "Kapβ2", "test": "Isothermal titration calorimetry", "format": "binding", "settings": "ITC, Supplementary Table 1 (not shown)", "experimental": "ITC experiments were performed with a Malvern iTC200 calorimeter (Malvern Instruments). […] ITC experiments were performed at 25 °C with 19 rounds of 2 μL injections. Data were analyzed using Origin software."}, "Kapβ2 [4]": {"system": "Kapβ2", "test": "Analytical ultracentrifugation", "format": "binding", "settings": "28 µM each, 25 °C, 20 mM HEPES pH 7.4, 150 mM NaCl", "experimental": "AUC measurements were conducted with ProteomeLab XL-I (Beckman Coulter). […] The solutions were filled in 1.5 mm path-length titanium cells (Nanolytics). The measurements were performed with Rayleigh-interference optics at rotor speed of 125,000 × g (at 70 mm radius). The temperature was set at 25 °C. The weight concentration distribution as a function of sedimentation coefficient c(s20,w) and frictional ratio f/f0 were computed with SEDFIT[49] and Igor Pro software. The sedimentation coefficient was normalized to be the value at 20 °C in pure water s20,w. The molecular weight M was calculated with the corresponding peak value of s20,w and f/f0[49]."}, "BSA": {"system": "BSA", "test": "Pull-down binding assay, BSA control", "settings": "GST:PR18 on beads", "source_text": "as §1"}, "EGFP": {"system": "EGFP", "settings": "GST:PR18 on beads", "experimental": "(§2) Four micrograms of GST proteins were immobilized on 30 μL of beads. […] Unbound proteins were washed three times with the buffer. Bound proteins and unbound proteins were separated by SDS-polyacrylamide gel electrophoresis and stained with Coomassie Brilliant Blue."}, "MBP": {"system": "MBP", "settings": "GST:PR18 on beads", "experimental": "as §2"}, "Lysozyme": {"system": "Lysozyme", "test": "Pull-down binding assay, Lysozyme control", "settings": "GST:PR18 on beads", "source_text": "as §1"}},
  "note": "Where no end group is shown, it is not given here. MBP = maltose-binding protein; HA = HA epitope tag",
  "data": [
    {"substance": "MBP:PR8: maltose-binding protein fusion of 8 repeats of Pro-Arg ({MBP}-PRPRPRPRPRPRPRPR)", "values": [
      {"measurement": "Binding to Kapβ2 (pull-down)", "setting": "Kapβ2 [1]", "value": "did not"}
    ]},
    {"substance": "HA:SBP:GFP:PR20:HA: PR20 fusion expressed from plasmid in HeLa cells ({HA-SBP-GFP}-PRPRPRPRPRPRPRPRPRPRPRPRPRPRPRPRPRPRPRPR-{HA}; not fully specified)", "values": [
      {"measurement": "Co-immunoprecipitation of endogenous Kapβ2", "setting": "endogenous Kapβ2", "value": "interaction between endogenous Kapβ2 and HA:SBP:GFP:PR20:HA"}
    ]},
    {"substance": "GA20", "values": [
      {"measurement": "Inhibition of the ability of Kapβ2 to melt FUS droplets (turbidity)", "setting": "[2]", "value": "did not"}
    ]},
    {"substance": "MBP:PR18: maltose-binding protein fusion of 18 repeats of Pro-Arg (PRPRPRPRPRPRPRPRPRPRPRPRPRPRPRPRPRPR; also: MBP fusion, end not given here)", "values": [
      {"measurement": "Binding to Kapβ2 (pull-down)", "setting": "Kapβ2 [1]", "value": "bound Kapβ2"},
      {"measurement": "Binding to Importinα (pull-down)", "setting": "Importinα", "value": "interactions"},
      {"measurement": "Binding to Importinβ1 (pull-down)", "setting": "Importinβ1", "value": "interactions"},
      {"measurement": "Relative binding strength to Kapβ2 vs full-length FUS", "setting": "Kapβ2 [3]", "value": "bound Kapβ2 more strongly than full-length FUS does"},
      {"measurement": "Complex formation with Kapβ2 (AUC)", "setting": "Kapβ2 [4]", "value": "complex formation"}
    ]},
    {"substance": "GST:PR18: Glutathione S-transferase fusion of PR18 (PRPRPRPRPRPRPRPRPRPRPRPRPRPRPRPRPRPR; also: GST fusion, end not given here)", "values": [
      {"measurement": "Binding to Kapβ2 (pull-down)", "setting": "Kapβ2 [1]", "value": "bound Kapβ2"},
      {"measurement": "Binding to BSA (pull-down)", "setting": "BSA", "value": "no interaction"},
      {"measurement": "Binding to EGFP (pull-down)", "setting": "EGFP", "value": "no interaction"},
      {"measurement": "Binding to MBP (pull-down)", "setting": "MBP", "value": "no interaction"},
      {"measurement": "Binding to Lysozyme (pull-down)", "setting": "Lysozyme", "value": "no interaction"}
    ]}
  ]
}
